Measured values reported in US20220273678A1 (priority 2020, published 2022).
Entries after “also recorded” stand apart in the source; their conditions may differ. Where two headings read alike, the source gives them in different places.

Columns and labels:
SARS-CoV-2 [1] = type: cell-based
[2] = cited from earlier work
IL-6, IL-10 = type: cell-based, human
SARS-CoV-2 [3] = test: SARS-CoV-2 replication in human airway epithelial (HAE) air-liquid interface cultures, flow cytometry; type: cell-based
IL-6 = type: cell-based, African green monkey; conditions: Mito-MES 10-1000 nM, 4F 10 μM
[4] = system: ACE2, CD147, NRP1 and TMPRSS2; test: Host entry factor protein levels in Calu3 cells, flow cytometry; type: cell-based, human; conditions: methanesulfonate
icSARS-CoV-2-mNG [5] = type: cell-based, SARS-CoV-2
[6] = mice, doses as high as 230 mg/kg/day; cited from earlier work
IFN-β, IFN-λ = type: cell-based, human; conditions: infected Calu3, 48 hpi, Mito-MES 100-1000 nM; methanesulfonate
SARS-CoV-2 [7] = test: SARS-CoV-2 replication in HEK293T-hACE2 cells, flow cytometry; type: cell-based; conditions: 100 nM Mito-MES; methanesulfonate
cleaved caspase 3 = type: cell-based, human; conditions: methanesulfonate
[8] = cited from earlier work; remark: listed apart in the source
[9] = system: mitochondrial reactive oxygen species (mito-ROS); test: Mitochondrial reactive oxygen species (MitoSOX Red) and ROS content in Calu3 cells; conditions: 1000 nM Mito-MES; methanesulfonate
Experimental: Flow cytometry was used to determine the cellular content of Calu3 cells for mitochondrial reactive oxygen species (mito-ROS) based on the median fluorescence intensity (MFI) of the fluorochrome MitoSOX Red and was compared to a negative cell population (fluorescence minus one negative control for staining) (ΔMFI). Flow cytometry was used to determine the percent of SARS-CoV-2 infected Calu3 cells positive for MitoSOX Red. Calu3 and Vero cells were treated with DMSO vehicle control (Ctrl) or the mitochondrial antioxidants MitoTEMPO (25-1000 nM) (72 h) or Mito-MES (25-1000 nM) (72 h) and were infected with a fluorescent mNeonGreen SARS-CoV-2 (icSARS-CoV-2-mNG) (MOI 0.3) (48 h). Immunofluorescent analysis of viral replication and cellular oxidative stress was performed at 48 hpi. […] Viral replication was determined by TCID50-assay (FIG. 3-d), cell cytotoxicity was assessed by the XTT assay in uninfected cells treated with dTPP (0.01-10 μM) (72 h) (FIG. 3-e). […]
After 24 h (or 48 h, experiments involving 4F) post-infection, cells were collected and stained with 5 μM MitoSOX Red Mitochondrial reactive oxygen species (mito-ROS) indicator for 30 min at 37° C. […] Cells were then analyzed using an LSR Fortessa flow cytometer and FACSDiva software (Becton & Dickinson, San Diego, Calif., USA), and data were analyzed using FlowJo software.

icSARS-CoV-2-mNG [10] = type: cell-based, SARS-CoV-2; conditions: methanesulfonate
Nrf2, Keap1, HO-1 = test: Nrf2, Keap1 and HO-1 protein levels in Calu3 cells, flow cytometry; type: cell-based, human; conditions: infected and uninfected Calu3

With `COC1=C(OC)C(=O)C(CCCCCCCCCC[P+](c2ccccc2)(c2ccccc2)c2ccccc2)=C(C)C1=O.CS(=O)(=O)[O-]` [Mito-MES, 10-(4,5-dimethoxy-2-methyl-3,6-dioxo-1,4-cyclohexadienyl) decyl triphenylphosphonium methanesulfonate] the “release of progeny SARS-CoV-2 virus particles to the cell supernatant, TCID50 assay” value (SARS-CoV-2 [1]) was “reduction in subsequent release of progeny SARS-CoV-2 virus particles”, the “IC50 against SARS-CoV-2 compared to remdesivir, TCID50 assay” value (SARS-CoV-2 [1]; Vero E6) was “three orders of magnitude lower” and the “percent of cells positive for SARS-CoV-2 N and Spike S proteins, flow cytometry” value (SARS-CoV-2 [1]; Vero cells, methanesulfonate) was “reduced the percent of cells that were positive for SARS-CoV-2 N and Spike S proteins; also recorded: reduced the percent of infected cells that were positive for N protein”. For the same molecule, the “antiviral activity by immunofluorescence and qPCR” value (SARS-CoV-2 [1]; methanesulfonate) was “confirmed by immunofluorescence (IF) detection of SARS-CoV-2 and by qPCR; also recorded: modest antiviral activity”, the “average elevation of fasting plasma concentrations” value ([2]; 40-80 mg/day, after about 10 days) was “about 5 ng/mL” and the “plasma concentration after 24 h” value ([2]; humans, single 40 mg oral dose) was “about 2 ng/ml”. For the same molecule, the maximal plasma concentration ([2]; humans, single 80 mg oral dose) was 33 ng/mL, the “time of maximal plasma concentration” value ([2]; humans, single 80 mg oral dose) was “about 1 h” and the “secretion / release of IL-6” value (IL-6, IL-10) was “attenuated SARS-CoV-2-induced increase in secretion of IL-6”. The “secretion of IL-10” value (IL-6, IL-10) was “reduced secretion of IL-10”, the “Viral replication by flow cytometry in human airway epithelial cells” value (SARS-CoV-2 [3]; 1 μM Mito-MES, Control 20.0%, MOI 0.1) was 0.4% and the “percent of SARS-CoV-2 infected human lung epithelial cells, flow cytometry” value (SARS-CoV-2 [3]; HAE ALI cultures, 100 nM Mito-MES) was “significantly reduced the percent of SARS-CoV-2 infected human lung epithelial cells”. The “percent of SARS-CoV-2 infected FOXJ1+ ciliated epithelial cells, flow cytometry” value (SARS-CoV-2 [3]; HAE ALI cultures, methanesulfonate) was “significantly reduced the percent of human FOXJ1 (forkhead box J1) positive ciliated epithelial cells infected with SARS-CoV-2”, the “SARS-CoV-2-induced secretion of IL-6” value (IL-6) was “attenuated the increase in secretion of IL-6” and the “protein levels of ACE2, TMPRSS2, NRP1 and CD147” value [4] was “did not impact; also recorded: Neither SARS-CoV-2 infection nor Mito-MES significantly modulates protein levels”. For the same molecule, the “antiviral activity against fluorescent SARS-CoV-2” value (icSARS-CoV-2-mNG [5]) was “potent and similar antiviral activity”, the mutagenicity and toxicity [6] was “non-mutagenic and non-toxic” and the “secreted and cellular IFN-β and IFN-λ” value (IFN-β, IFN-λ) was “did not impact increase in secreted and cellular IFN-β”. For the same molecule, the “percent of SARS-CoV-2 infected HEK293T-hACE2 cells, flow cytometry” value (SARS-CoV-2 [7]) was “significantly reduced the percent of SARS-CoV-2 infected human non-cancerous HEK293T epithelial cells”, the “SARS-CoV-2-induced cleavage of caspase 3, immunofluorescence” value (cleaved caspase 3; Calu3, Mito-MES 10-1000 nM) was “reduced SARS-CoV-2-induced increase in cleavage of caspase 3; also recorded: reduced by Mito-MES treatment” and the “percent of infected cells positive for cleaved caspase 3 and MFI of cleaved caspase 3 per cell, flow cytometry” value (cleaved caspase 3; Calu3, Mito-MES 100 nM, 4F 10 μM) was “attenuated SARS-CoV-2-induced increase; also recorded: inhibits or reduces SARS-CoV-2-induced increase”. For the same molecule, the elimination half-life ([8]; based on post 4 h data) was “about 14 h”, the lung tissue penetration ([8]; mice, 4 mg/kg/day) was “good lung tissue penetration” and the “accumulation in tissues including liver and kidney” value ([8]; mice, >10 days of oral supplementation) was 50 to 700 pmol/g (wet weight). The “time of peak plasma concentration” value ([8]; oral administration) was at most 1 h, the “ROS content of Calu3 cells” value [9] was “increased the ROS content of Calu3 cells” and the “antiviral activity against fluorescent SARS-CoV-2” value (icSARS-CoV-2-mNG [10]) was “potent and similar antiviral activity”. For the same molecule, the “protein levels of Nrf2” value (Nrf2, Keap1, HO-1) was “did not impact protein levels of Nrf2” and the “protein levels of Keap (Keap1)” value (Nrf2, Keap1, HO-1; methanesulfonate) was “reduced protein levels of the endogenous Nrf2 inhibitor, Keap1; also recorded: reduced protein levels of Keap”.
